In patent US20230126447A1, “OCULAR DRUG DEPOT FOR COMPLEMENT-MEDIATED DISORDERS” (priority 2020, published 2023):
Each block holds one compound with its values, some of them ahead of it.

What was measured:
[1] = In vitro binding to synthetic melanin; settings: synthetic melanin 50 μg/mL, PBS, 37° C., 1 hour
Experimental: (§1) […] The melanin solution was stored in the dark at 37° C. until use.
(§2) Immediately after the assay, samples were added to an equal volume of warm PBS, aliquots (3 μL each) were removed, added to 100 μL of acetonitrile containing carbutamide as internal standard, and then diluted with water (197 μL). These time-zero samples, prepared in PBS only, were also used as calibration standards.
(§3) The assay plates containing samples with and without melanin were incubated in the dark with shaking at 37° C. for 1 hour. Following incubation, the samples were centrifuged for 15 minutes at approximately 4000 rpm at 37° C. to sediment the melanin. Sample supernatant (3 μL) was added to 100 μL of acetonitrile containing the internal standard and then diluted with water (197 μL).
(§4) The column was set to a temperature of 55° C. […]
(§5) Analytes and internal standards were detected using an Applied Biosystems Sciex API-5500 triple quadrupole mass spectrometer with Agilent 1260 Infinity Binary Pump and Apricot Designs ADDA High-Speed Dual Arm Autosampling System. The instrument was equipped with an electrospray ionization source (600° C.) operated in the positive ion mode. Analytes and internal standards for all samples were monitored in the multiple-reaction-monitoring scan mode.

[2] = In vitro binding to melanin from Sepia officinalis; settings: S. officinalis melanin 50 μg/mL, PBS, 37° C., 1 hour
Experimental: as §1, §2, §3, §4, §5

[3] = Stability under melanin binding assay conditions; settings: PBS, 37° C., 1 hour vs time zero
Experimental: as §1, §3
% Stability=Mean Total Conc. (μM) after 1 Hour/Mean Total Conc. (μM) at Time Zero×100%

[4] = QWBA tissue distribution of [14C] Compound 2, Long-Evans rats (PO, IV); assay type: in vivo
Experimental: (§6) The study was conducted to determine the tissue distribution of [^14C] Compound 2-derived radioactivity following a single oral gavage (PO) administration of 20 mg/kg (100 μCi/kg) of [^14C] […] Compound 2 to a male Long-Evans rat using quantitative whole body autoradiography (QWBA).
(§7) A total of ten male Long-Evans and three male Wistar Hannover rats were administered a single PO dose of [^14C] […] One male Long-Evans rat was administered a single IV dose of [^14C] […] (See Table 3). One animal per group per strain was anesthetized by inhalation of isoflurane gas at designated time points post-dose, followed by blood collection via cardiac puncture and euthanasia by isoflurane overdose. Each carcass was then frozen in a dry ice/hexane bath. Blood and plasma samples were assayed for total radioactivity (TRA) concentrations by liquid scintillation counting (LSC). The tissue concentrations of TRA were determined using validated QWBA techniques. Pharmacokinetic parameters of derived radioactivity in blood, plasma, and tissues were calculated, to the extent possible, using Phoenix© WinNonlin® (Version 6.3, Pharsight Corporation; Mountain View, Calif.).

[5] = QWBA tissue distribution of [14C] Compound 2, Wistar Hannover rats (PO); assay type: in vivo; settings: 20 mg/kg PO
Experimental: as §6, §7

CFD = CFD (Homo sapiens, UniProt P00746); experiment: Inhibitory effect on CFD; assay type: biochemical
[6] = male Long-Evans rats, 20 mg/kg PO
[7] = male Wistar Hannover rats, 1 h post-dose
[8] = male Wistar Hannover rats, 24 h post-dose

CFD, sequence (P00746 26-253): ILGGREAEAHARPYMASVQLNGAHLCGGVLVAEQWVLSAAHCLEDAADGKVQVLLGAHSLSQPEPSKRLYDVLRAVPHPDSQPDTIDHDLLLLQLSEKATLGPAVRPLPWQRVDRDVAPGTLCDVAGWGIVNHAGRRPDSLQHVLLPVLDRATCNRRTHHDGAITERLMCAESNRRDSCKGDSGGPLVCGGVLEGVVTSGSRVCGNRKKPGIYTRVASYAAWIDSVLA

Bmax (binding capacity) [1]: 308 nmol/mg melanin
Bmax (binding capacity) [2]: 280 nmol/mg melanin
Mean Stability [3]: 87.3%
Compound: CCN(CC)CCCC(C)Nc1ccnc2cc(Cl)ccc12 (stereo not shown) [Chloroquine, chloroquine, reference compound]

Radioactivity in the central nervous system ([4]; male Long-Evans rat, 5 mg/kg IV, […] post-dose): 0.201 μg equiv/g tissue
Tissue:plasma AUC0-t ratio, majority of tissues [4, 6]: greater than 1.00
Tmax, majority of tissues [4, 6]: 1 h
Total plasma radioactivity ([4]; male Long-Evans rats, 20 mg/kg PO, 48 h post-dose): BLQ
Blood concentration of radioactivity ([4]; male Long-Evans rats, 20 mg/kg PO, 72 h post-dose): BLQ
Concentration of radioactivity, eye and uveal tract ([4]; male Long-Evans rats, 20 mg/kg PO, 840 h post-dose): 0.212 μg equiv/g tissue
Radioactivity in the central nervous system ([5]; Wistar Hannover rat, 1 h post-dose): 0.179 μg equiv/g tissue
Tmax, all tissues ([5]; male Wistar Hannover rats): 1 h
Tissue to plasma concentration ratio, brain [5, 7]: 0.04
Tissue to plasma concentration ratio, cecum mucosa [5, 7]: 0.96
Tissue to plasma concentration ratio, kidney medulla [5, 7]: 12.6
Tissue to plasma concentration ratio, stomach wall non-glandular [5, 7]: 1.00
Tissue to plasma ratio, bone marrow [5, 8]: 2.90
Tissue to plasma ratio, stomach wall non-glandular [5, 8]: 100
Total plasma radioactivity ([5]; male Wistar Hannover rats, 168 h post-dose): BLQ
Compound: CC(=O)c1nn(CC(=O)N2[C@H](C(=O)Nc3nc(Br)ccc3C)C[C@@]3(C)C[C@@H]23)c2ccc(-c3cnc(C)nc3)cc12 [Compound 2, (1R,3S,5R)-2-(2-(3-acetyl-5-(2-methylpyrimidin-5-yl)-1H-indazol-1-yl)acetyl)-N-(6-bromo-3-methylpyridin-2-yl)-5-methyl-2-azabicyclo[3.1.0]hexane-3-carboxamide]

Compound: CC(=O)c1cn(CC(=O)N2[C@H](C(=O)Nc3nc(Br)ccc3C)C[C@@]3(C)C[C@@H]23)c2c(C)cc(-c3cnc(C)nc3)cc12 [Compound 3, (1R,3S,5R)-2-(2-(3-acetyl-7-methyl-5-(2-methylpyrimidin-5-yl)-1H-indol-1-yl)acetyl)-N-(6-bromo-3-methylpyridin-2-yl)-5-methyl-2-azabicyclo[3.1.0]hexane-3-carboxamide]
IC50 (CFD): 32.1 nM
